Assay results as given in patent publication US9901646B2, “Methods for induction of antigen-specific immune tolerance” (École Polytechnique Fédérale de Lausanne (EPFL), priority 2010, dated 2018).
Where no end group is shown, it is not given here. 8‑arm PEG = 8-arm polyethylene glycol (PEG) dendrimer, conjugated via pyridyldisulfide groups to cysteine thiols

Columns and labels:
[1] = system: human erythrocytes (type A and B); assay: Binding of bacteria displaying peptide to cells, flow cytometry; settings: peptide displayed on bacteria, 1 h at 4° C.
Protocol: Method: To characterize specificity, individual sequenced clones were analyzed using cytometry for binding toward human erythrocytes (type A and B), mouse erythrocytes, HEK293T cells and HUVECs. For binding assays, 10^6 mammalian cells were scanned on an AccuriA6 after co-incubation with 5×10^7 bacteria for 1 h at 4° C. followed by three washes in HFS (5% HSA, 2% FBS in PBS). The percentage of cells with green bacteria bound was calculated using FLOWJO Software.

human erythrocytes = assay: Erythrocyte binding of APC-peptide conjugates by flow cytometry; settings: 1 μM APC-peptide conjugate, 37 C, 45 min
Protocol: Peptides were ordered and custom-synthesized via standard fmoc solid-phase peptide synthesis from PolyPeptide Group (Strasbourg, France). 10 equivalents of peptide dissolved in 3 M guanidine-HCl were added to 2 mg/mL maleimide-activated APC (InnovaBiosciences, Cambridge, UK) in PBS. Following a 4 h incubation at 4° C., the reaction was desalted on a 2 mL ZEBA Desalting Column (Thermo Scientific) and stored at 4° C.
Freshly isolated human blood was dissolved 100-fold into PBS supplemented with 20 mg/mL BSA. 5×10^5 erythrocytes were added to 150 μL of 1 μM APC-peptide conjugate and incubated at 37 C for 45 min. Cells were washed extensively in PBS+20 mg/mL BSA, and analyzed for APC fluorescence on a CyAn ADP Flow cytometer (Beckman Coulter).

glycophorin-A (GYPA) = target: T1, glycophorin-A (GYPA) (Mus musculus, UniProt P14220); assay: Affinity pull-down with biotinylated ERY1 peptide and photoactivatable crosslinker, Western blot; assay type: binding; settings: whole erythrocytes, UV crosslinking, streptavidin and anti-GYPA Western blot
T1 construct: GYPA is naturally expressed and presented as part of a complex comprised of several membrane and cytoskeletal proteins; endogenous in cells; host or cells: whole mouse erythrocytes
Protocol: Method: The ERY1 (H2N-WMVLPWLPGTLDGGSGCRG-CONH2) (SEQ ID NO:19) and mismatch (H2N-PLLTVGMDLWPWGGSGCRG-CONH2) (SEQ ID NO:20) peptides were synthesized using standard solid-phase f-moc chemistry on TGR resin. The peptide was cleaved from the resin in 95% tri-fluoroacetic acid, 2.5% ethanedithiol, 2.5% water, and precipitated in ice-cold diethyl ether. Purification was conducted on a Waters preparative HPLC-MS using a C18 reverse phase column.
In brief, peptides were solubilized in PBS/DMF and reacted with 1.05 equivalents of Mts-atf-biotin overnight at 4° C. Following clarification of the reaction by centrifugation, biotinylated peptide was incubated with erythrocytes at in PBSA-50 for 1 h at 37° C., cells were washed twice in fresh PBS, and were UV irradiated at 365 nm for 8 min at room temperature. Cells were lysed by sonication and the lysate was purified using streptavidin-coated magnetic beads (Invitrogen). The eluate was run on an SDS-PAGE and transferred to a PVDF membrane, and immunoblotted with streptavidin-HRP (R&D Systems) or anti-mouse GYPA.

circulating erythrocytes = assay: 8-arm PEG constructs binding to circulating erythrocytes after intravenous injection, flow cytometry; assay type: in vivo, mouse; settings: flow cytometry
Description: FIG. 17 presents experimental results depicting erythrocyte cell-surface half-life of 8-arm PEG-ERY1 (filled circles) and 8-arm PEG-MIS (empty boxes), determined by flow cytometry.

[2] = mouse, in vivo, iv, 150 ug
Protocol: The Swiss Vaud Veterinary Office previously approved all animal procedures. While under anesthesia with ketamine/xylasine, the mouse tail was warmed in 42° C. water and 150 μg of protein was injected in a 100 μL volume directly into the tail vein. Care was taken to ensure mice were kept at 37° C. while under anesthesia. Blood was drawn by a small scalpel incision on the base of the tail, and diluted 10-fold in PBSA-5, 10 mM EDTA, and stored at −20° C. until further analysis. Blood samples were analyzed for MBP concentration by sandwich ELISA. In brief, monoclonal mouse anti-MBP was used as the capture antibody, polyclonal rabbit anti-MBP as the primary antibody, and goat anti-rabbit-HRP as the secondary antibody. The data were analyzed in PRISM4 using standard pharmacokinetic compartmental analysis, using Eq. 1 and Eq. 2 A=A0e^−Kt Equation 1: Standard one-compartment model
where A is the amount of free drug in the body at time t and A0 is the initial amount of drug at time zero. A=ae^−at+be^−βt Equation 2: Standard two-compartment model
where A is the amount of free drug in the central compartment at time t.

[3] = system: mouse erythrocytes (glycophorin-A on the erythrocyte surface); assay: Binding of OVA conjugates to erythrocytes in vitro, flow cytometry, equilibrium binding
Description: To obtain strong and specific biophysical binding of an antigen to erythrocytes, we used a synthetic 12 amino acid peptide (ERY1) that we discovered by phage display to specifically bind to mouse glycophorin-A (Kontos and Hubbell, 2010). In this investigation, the model antigen OVA was used with a transgenic mouse strain (OT-I) whose CD8^+ T cell population expresses the T cell receptor specific for the MHC I immunodominant OVA peptide SIINFEKL (SEQ ID NO:3). The ERY1 peptide was chemically conjugated to OVA to create an OVA variant (ERY1-OVA) that binds mouse erythrocytes with high affinity and specificity (FIG. 8a). High-resolution confocal microscopy confirmed earlier observations concerning ERY1 binding (Kontos and Hubbell, 2010), namely localization to the cell membrane equatorial periphery, with no intracellular translocation of the ERY1-conjugated protein.

erythrocytes (CD45−) = assay: In vivo binding to circulating erythrocytes after intravenous administration; parameters: species or system mouse
Protocol: 150 μg of ERY1-OVA or OVA in 0.9% saline (B. Braun) in a volume of 100 μL was injected intravenously into the tail of 8-12 week old female C57BL/6 mice while under anesthesia with isoflurane. […] At predetermined time points, 5 μL of blood was taken from a small incision on the tail, diluted 100-fold into 10 mM EDTA in PBS, washed three times with PBS with 10 mg/mL BSA, and analyzed for OVA content by flow cytometry and ELISA. OVA was quantified by sandwich ELISA, using a mouse monoclonal anti-OVA antibody (Sigma) for capture, a polyclonal rabbit anti-OVA antibody (AbD SEROTEC) for detection, a goat anti-rabbit-IgG-HRP antibody (BioRad) for final detection, followed by TMB substrate (GE Life Sciences). Hematological characterization was performed on an ADVIVA 2120 Hematology System (Siemens). Erythrocyte-bound ERY1-GST was detected by incubating labeled cells with goat anti-GST (GE Healthcare Life Sciences), followed by incubation with AlexaFluor488 donkey anti-goat (Invitrogen), and analyzed by flow cytometry. For biodistribution studies, 20 μg of ERY1-APC or MIS-APC was injected intravenously into the tail vein of 8-12 week old female C57BL/6 mice as described above. Mice were sacrificed at predetermined time points, and the spleen, blood, and liver were removed. […]

GQSGQYICTSAGFGEYCFIDGSSGGS (Erythrocyte Binding Peptide) [ERY59]
binding to human erythrocytes, specificity as compared to 293T cells and HUVECs [1]: bound specifically to human erythrocytes

GQSGQTYFCTPTLLGQYCSVGSSGGS (Erythrocyte Binding Peptide) [ERY64]
binding to human erythrocytes as conjugates of APC (human erythrocytes): bound to human erythrocytes | binding to human erythrocytes, specificity as compared to 293T cells and HUVECs [1]: bound specifically to human erythrocytes

PLLTVGMDLWPW (Control peptide) [mismatch peptide, same amino acid residues as ERY1, scrambled, reference compound]
molecular target on the erythrocyte membrane / conjugation to erythrocyte proteins (glycophorin-A (GYPA)): failed to conjugate to any erythrocyte proteins

GQSGHWHCQGPFANWVGSSGGS (Erythrocyte Binding Peptide) [ERY123]
binding to human erythrocytes as conjugates of APC (human erythrocytes): bound to human erythrocytes | binding to human erythrocytes, specificity as compared to 293T cells and HUVECs [1]: bound specifically to human erythrocytes

8-arm PEG-MIS: 8-arm PEG conjugate harboring the non-specific MIS peptide (H-PLLTVGMDLWPWGGSGC(8‑arm PEG)RG-NH2; also: 8-arm PEG conjugate (multivalent), linkage to PEG not given here) [reference compound]
binding to circulating erythrocytes upon intravenous injection (circulating erythrocytes): not

GQSGQPNSRWIYMTPLSPGIYRGSSGGS (Erythrocyte Binding Peptide) [ERY19]
binding to human erythrocytes, specificity as compared to 293T cells and HUVECs [1]: bound specifically to human erythrocytes

WMVLPWLPGTLD (not fully specified (C-terminus)) [ERY1, synthesized as H2N-…-CONH2]
molecular target on the erythrocyte membrane / conjugation to erythrocyte proteins (glycophorin-A (GYPA)): glycophorin-A (GYPA)

GQSGQSVWYSSRGNPLRCTGGSSGGS (Erythrocyte Binding Peptide) [ERY162]
binding to human erythrocytes, specificity as compared to 293T cells and HUVECs [1]: bound specifically to human erythrocytes

GQSGQFCTVIYNTYTCVPSSGSSGGS (Erythrocyte Binding Peptide) [ERY141]
binding to human erythrocytes as conjugates of APC (human erythrocytes): bound to human erythrocytes | binding to human erythrocytes, specificity as compared to 293T cells and HUVECs [1]: bound specifically to human erythrocytes

maltose binding protein [wild-type MBP]
half-life [2]: 55.2 min | α half life [2]: 24.6 min | β half life [2]: 66.6 min

B1: OVA conjugated with only the crosslinking molecule: OVA carrying only the SMCC crosslinker (conjugate)
chain: GSIGAASMEFCFDVFKELKVHHANENIFYCPIAIMSALAMVYLGAKDSTRTQINKVVRFDKLPGFGDSIEAQCGTSVNVHSSLRDILNQITKPNDVYSFSLASRLYAEERYPILPEYLQCVKELYRGGLEPINFQTAADQARELINSWVESQTNGIIRNVLQPSSVDSQTAMVLVNAIVFKGLWEKAFKDEDTQAMPFRVTEQESKPVQMMYQIGLFRVASMASEKMKILELPFASGTMSMLVLLPDEVSGLEQLESIINFEKLTEWTSSNVMEERKIKVYLPRMKMEEKYNLTSVLMAMGITDVFSSSANLSGISSAESLKISQAVHAAHAEINEAGREVVGSAEAGVDAASVSEEFRADHPFLFCIKHIATNAVLFFGRCVSP
binding to erythrocytes (flow cytometry) [3]: did not display any measureable affinity

B2: ovalbumin (protein)
chain: GSIGAASMEFCFDVFKELKVHHANENIFYCPIAIMSALAMVYLGAKDSTRTQINKVVRFDKLPGFGDSIEAQCGTSVNVHSSLRDILNQITKPNDVYSFSLASRLYAEERYPILPEYLQCVKELYRGGLEPINFQTAADQARELINSWVESQTNGIIRNVLQPSSVDSQTAMVLVNAIVFKGLWEKAFKDEDTQAMPFRVTEQESKPVQMMYQIGLFRVASMASEKMKILELPFASGTMSMLVLLPDEVSGLEQLESIINFEKLTEWTSSNVMEERKIKVYLPRMKMEEKYNLTSVLMAMGITDVFSSSANLSGISSAESLKISQAVHAAHAEINEAGREVVGSAEAGVDAASVSEEFRADHPFLFCIKHIATNAVLFFGRCVSP
notes: model antigen
binding to circulating eryptotic (annexin-V+) and healthy (annexin-V−) erythrocytes (erythrocytes (CD45−)): nonbinding
